Read-outs that look alike come from different tables or passages of the source. Marks after values point to notes of the source that are not given here.
Key:
[1] = test system: EDL muscles from normal C57Black/6 mice; experiment: DNA synthesis ([3H]-thymidine) in whole-muscle EDL culture, normal mice; assay type: cell-based; conditions: NO donor alone; whole mouse EDL-muscle cultures; FIG. 2
Description: The proposed model of satellite cell activation as a function of NO is supported by a study of the effect of two known NO donor compounds-ISDN and DPTA-on whole mouse EDL-muscle cultures (FIG. 2), which studies were performed using in vitro methods described below. Results are reported in dpm (“disintegrations per minute”) per amount of DNA (here μg). […] In all cases, each sample was assayed in duplicate for counts, and in triplicate for DNA content (micrograms), the latter according to a standard curve of 5 or more standard concentrations that was established with a regression line having r^2 in the linear regression analysis greater than 0.97 at each assay.
Extensor digitorum longus (EDL) muscles were dissected cleanly and carefully from normal C57Black/6 mice (8 weeks old) without stretching or trauma that could easily activate satellite cells. Each muscle was aligned radially in one well of a 6-well Flex II culture plate (Flexcell International, N.C., USA), and the tendons were pinned so the muscle was at resting length. […]
(§1) DNA was isolated from the tissues. DNA synthesis was assayed by scintillation counting in Ready Safe scintillation cocktail (Beckman), and the concentration of DNA in each sample was assayed using a fluorescence assay (calibrated against a standard curve). The data were calculated as DNA synthesis per microgram of DNA in each sample.

[2] = test system: EDL muscles from old (12-month-old) normal mice; experiment: DNA synthesis in whole-muscle EDL culture from 12-month-old mice; assay type: cell-based, mouse; conditions: MyoNovin higher dose of 2, L-NAME both doses (very high), FIG. 19
Description: […] Each muscle was aligned radially in one well of a 6-well Flex II culture plate (Flexcell International, N.C., USA), and the tendons were pinned so the muscle was at resting length. The muscles were incubated in growth medium ([…], DMEM, containing 15% v/v horse serum (HyClone Laboratories Inc.) and 2% v/v chick embryo extract (ICN Biomedicals) at 37° C. in 5% CO2). Muscles in the wells were treated with or without an NO donor. [^3H]-Thymidine was added to the medium at the beginning of treatment, and cultures were maintained for 24 hours to allow incorporation of the isotope into new DNA. At the end of 24 hours, muscles were removed from wells, tendons were trimmed away, and the muscles were frozen at −20° C. for future analysis.
as §1
Data from an experiment on EDL muscles in culture, isolated from old (12-month-old) normal […] mice were conducted using the method described above for methocarbomol and ISDN.
In this experiment, muscles were treated with MyoNovin (2 doses) or the NOS inhibitor, L-NAME (2 doses).

[3] = test system: back muscle tissue homogenate; experiment: EPR assay of NO release, back muscle homogenate; assay type: biochemical, mouse
Description: (§2) In the experiment liver and back muscle tissue taken from C57Black/6 mice were homogenized in ice-cold sucrose buffer. A small amount of MyoNovin was dissolved in dimethylsulfoxide and added to the tissue homogenates. An NO spin-trap molecule N-Methyl-D-glucamine dithiocarbamate (MGD) was added to the homogenate-MyoNovin mixture as a stable iron complex [10 μl of 50 mM MGD in saline; (containing MGD at 50 mM and Fe^2+ at 10 mM)] in order to trap any NO released from the tissue homogenate. The entire homogenate mixture plus NO spin-trap solution was then incubated for 1 hour at 37° C. After incubation, a sample of homogenate (16 μl) was loaded into a quartz capillary tube for determination of the EPR spectrum. EPR spectra were then obtained using a Bruker EMXEPR spectrometer (Bruker, Co., Billerica, Mass.) at room temperature (25° C.). The instrument settings were: 9.25 GHz microwave frequency; 100 kHz modulation frequency; 20 mW microwave power, 4 G modulation amplitude, 40 ms time constant, 42 s scan time, and 100 Gauss scan range, and 3410 G center field.
(§3) FIG. 20 is a compilation of the spectra obtained. Curve A represents a blank control sample (the homogenate and NO spin-trap for the EPR assay, without the addition of MyoNovin). Curve B is an NO standard (homogenate and NO spin-trap for the EPR assay, bubbled with NO gas). […]

mdx dystrophic mice = experiment: DNA synthesis in back muscle after topical application, mdx mice; assay type: in vivo, mouse; conditions: transdermal, FIG. 18
Description: Ointments were applied according to the following procedure. • 1. Animals were anesthetized with isoflurane and the mid-dorsal skin (on the back) was shaved, washed with soap and water, and air dried. • 2. The ointment was applied to the sterile pad on an adhesive bandage. Control bandages were coated with the ointment base only. After topical application in which the bandages were applied to the shaved back region, bandages were wrapped with medical adhesive. The animals had the Elizabethan collar fitted while under anesthesia, to prevent their later chewing at the adhesive tape. Eyes were irrigated regularly, as animals were unable to groom well while wearing the cone. • 3. Animals were treated for a total of 24 hours. There were no apparent effects of treatment on behaviour. • 4. Two hours before euthanasia, the mice were injected with 2 μCi per gram body weight of tritiated-thymidine (intra peritoneal) to label DNA synthesis. • 5. At 24 hours from the start of ointment application, animals were euthanized using cervical dislocation under anesthesia provided by pentobarbital injection. […] DNA synthesis was assayed by scintillation counting in Ready Safe scintillation cocktail (Beckman), and the concentration of DNA in each sample was assayed using a fluorescence assay (calibrated against a standard curve). The data were calculated as DNA synthesis per microgram of DNA in each sample. […]

liver tissue homogenate = experiment: EPR assay of NO release, liver homogenate; assay type: biochemical, mouse; conditions: MGD spin-trap, 1 hour at 37° C., FIG. 20
Description: as §2, §3

[4] = 0.25% carisoprodol, 1% DETA, topical, FIG. 8
[5] = 1% methocarbamol, 0.2% ISDN ointment, topical 24 h, FIG. 7
[6] = back muscle, topical ointment on back, 24 h, DNA synthesis per microgram of DNA
[7] = gut (positive control tissue), topical ointment on back, 24 h, per microgram of DNA
[8] = heart (negative control tissue), topical ointment on back, 24 h, per microgram of DNA
[9] = quadriceps, topical ointment on back, 24 h, DNA synthesis per microgram of DNA

NCCN(CCN)/[N+]([O-])=N/O [DETA, diethylenetriamine-NONOate]
DNA synthesis in back muscle (in words) (normal C57Black/6 mice; [4]): induce increased DNA synthesis
DNA synthesis in quadriceps (in words) (normal C57Black/6 mice; [4]): induce increased DNA synthesis

O=[N+]([O-])O[C@H]1CO[C@H]2[C@@H]1OC[C@H]2O[N+](=O)[O-] [ISDN, isosorbide dinitrate]
DNA synthesis in back muscle (in words) (normal C57Black/6 mice; [5]): increase in DNA synthesis
DNA synthesis (3H-thymidine incorporation) compared to a control muscle [1]: stimulate an increase in DNA synthesis

COC(=O)[C@@H](N)CCCNC(=N)N[N+](=O)[O-] [L-NAME, L-nitro-arginine methyl ester]
DNA synthesis in EDL muscles in culture [2]: decreased DNA synthesis

NCCCN(CCCN)/[N+]([O-])=N/O [DPTA, dipropylenetriamine-NONOate]
DNA synthesis (3H-thymidine incorporation) compared to a control muscle [1]: stimulate an increase in DNA synthesis

CCCC(C)(COC(N)=O)COC(=O)NC(C)C (stereo not shown) [carisoprodol]
DNA synthesis in back muscle (in words) (normal C57Black/6 mice; [4]): induce increased DNA synthesis
DNA synthesis in quadriceps (in words) (normal C57Black/6 mice; [4]): induce increased DNA synthesis

COc1ccccc1OCC(O)COC(N)=O (stereo not shown) [MC, methocarbamol]
DNA synthesis in back muscle (in words) (normal C57Black/6 mice; [5]): increase in DNA synthesis
DNA synthesis, Back Muscle, Mean (normal C57Black/6 mice; back muscle, mean of experiments, outliers (*) excluded, MC/ISDN mean covers samples (a) and (b)): 427.5
DNA synthesis, Back Muscle, Experiment 1 (normal C57Black/6 mice; [6]): 430.5
DNA synthesis, Back Muscle, Experiment 2 (normal C57Black/6 mice; [6]): 734*
DNA synthesis, Back Muscle, Experiment 3 (normal C57Black/6 mice; [6]): 422.7
DNA synthesis, Back Muscle, Experiment 4 (normal C57Black/6 mice; [6]): 429.43
DNA synthesis, Gut, Experiment 2 (normal C57Black/6 mice; [7]): 123
DNA synthesis, Gut, Experiment 3 (normal C57Black/6 mice; [7]): 239.2
DNA synthesis, Gut, Experiment 4 (normal C57Black/6 mice; [7]): 225.9
DNA synthesis, Gut, Mean (normal C57Black/6 mice; gut, mean of experiments, MC/ISDN mean covers samples (a) and (b)): 196.0
DNA synthesis, Heart, Experiment 2 (normal C57Black/6 mice; [8]): 186
DNA synthesis, Heart, Experiment 3 (normal C57Black/6 mice; [8]): 221.3
DNA synthesis, Heart, Experiment 4 (normal C57Black/6 mice; [8]): 240.76
DNA synthesis, Heart, Mean (normal C57Black/6 mice; heart, mean of experiments, MC/ISDN mean covers samples (a) and (b)): 216.0
DNA synthesis, Quadriceps, Mean (normal C57Black/6 mice; quadriceps, mean of experiments, MC/ISDN mean covers samples (a) and (b)): 456.3
DNA synthesis, Quadriceps, Experiment 1 (normal C57Black/6 mice; [9]): 507
DNA synthesis, Quadriceps, Experiment 2 (normal C57Black/6 mice; [9]): 573
DNA synthesis, Quadriceps, Experiment 3 (normal C57Black/6 mice; [9]): 404.1
DNA synthesis, Quadriceps, Experiment 4 (normal C57Black/6 mice; [9]): 340.9

COc1ccccc1OCC(CO[N+](=O)[O-])O[N+](=O)[O-] (stereo not shown) [MyoNovin, 1,2-di-O-nitro-3(o-methoxyphenoxy)-propanediol]
DNA synthesis in EDL muscles in culture [2]: increased DNA synthesis
NO release (EPR) ([3]; back muscle homogenate, MGD spin-trap, 1 hour at 37° C., FIG. 20): strong release of NO
time-course of NO release ([3]; back muscle homogenates, FIG. 21): more than two hours
side effects to animal behaviour, appearance or weight (normal C57Black/6 mice; transdermal MyoNovin, 24 h, normal mice): no apparent side effects
increase in muscle cell proliferation (DNA synthesis) (normal C57Black/6 mice; transdermal, over a 24-hour period, normal mice, FIG. 17): 37-39%
DNA synthesis in back muscle compared to the control (mdx dystrophic mice): decreased
NO release (EPR) (liver tissue homogenate): strong release of NO

Reference: US8106080B2, “Compositions and methods for enhancing nitric oxide delivery” (priority 2006, dated 2012)
